The text below walks through data of US12503432B2, “Ionizable lipids for nucleic acid delivery” (Global Life Sciences Solutions Canada ULC, priority 2019, dated 2025).

Data set [1] in a line: LNP characterization: size and PDI by dynamic light scattering, mRNA encapsulation efficiency by RiboGreen assay. Type of data set: physicochemical. Here is the method:
Particle sizes and “polydispersity index” (PDI) of the lipid particle were measured by dynamic light scattering (DLS). PDI indicates the width of the particle distribution. This is a parameter calculated from a cumulative analysis of the (DLS)-measured intensity autocorrelation function assuming a single particle size mode and a single exponential fit to the autocorrelation function. […] The particles produced by mechanical micromixers such as the NanoAssemblr® Spark™ and NanoAssemblr® Benchtop (Precision NanoSystems Inc.) are substantially homogeneous in size assuming all other variables are neutral. A lower PDI indicates a more homogenous population of lipid particles. The Spark™ instrument is used in a screening setting to identify the lead compositions. Once the composition is selected, the lipid particle can be fine-tuned using the NanoAssemblr® Benchtop. Once the process parameters Flow Rate Ratio and Total Flow Rate is identified for the specific nanoparticle composition, the nanoparticle technology can be scaled up using the same process parameter values.
Lipid particles were also manufactured by a larger microfluidic mixer instrument, the NanoAssemblr® Ignite™ for testing. Briefly, 350 μL of mRNA was diluted using 100 mM sodium acetate buffer to the required concentration of 0.2 to 0.3 mg/mL. Lipid particle samples were then prepared by running both fluids, namely, nucleic acids in aqueous solvent and Lipid Mix in ethanol at a flow ratio of 3:1 and at a total flow rate of 12 ml/min in the microfluidic mixer. Following mixing in the microfluidic device, the post cartridge lipid nucleic acid particle sample was diluted into RNAse free tubes containing three to 40 volumes of phosphate buffered saline (PBS), pH 7.4. Ethanol was finally removed through dialysis in PBS, pH 7, or using Amicon™ centrifugal filters (Millipore, USA) at 3000 RPM, or using TFF systems. Once the required concentration was achieved, the lipid nucleic acid particles were filter sterilized using 0.2 μm filters in aseptic conditions. Final encapsulation efficiency was measured by the Ribogreen™ assay. Quant-iT™ RiboGreen® RNA Reagent and Kit (Invitrogen) following manufacturer directions.
Messenger RNA or plasmid nucleic acid therapeutic (NAT) as described below, was diluted using sodium acetate buffer to the required concentration. Lipid nucleic acid particle (LNAP) samples were then prepared by running both fluids using the NanoAssemblr® Spark instrument. Briefly, […] of nucleic acids in 100 mM sodium acetate buffer in a total volume of 32 μL was mixed with 16 μL of 37.5 mM lipid mix solution as required by the N/P ratios (4, 6, or 10 in illustrated examples). The microfluidically mixed lipid nucleic acid particles (LNAP) made in the instrument were immediately diluted down with 48 μL Ca++ and Mg++ free 1× PBS at pH 7.4 in the aqueous output well. These LNAP were immediately collected into microcentrifuge tubes containing 96 μL of the same buffer at pH 7.4. Encapsulation efficiency was measured by a modified Ribogreen™ assay (Quanti-iT RiboGreen™ RNA assay kit, Fisher). This information was used to establish the desired dosage.
After the lipid particles were made as described in Example 17, particle size (hydrodynamic diameter of the particles) was determined by Dynamic Light Scattering (DLS) using a ZetaSizer™ Nano ZS™ (Malvern Instruments, UK). He/Ne laser of 633 nm wavelength was used as the light source. Data were measured from the scattered intensity data conducted in backscattering detection mode (measurement angle=173). Measurements were an average of 10 runs of two cycles each per sample. Z-Average size was reported as the particle size, and is defined as the harmonic intensity averaged particle diameter. These LNP characteristics, as well as the results of the mRNA encapsulation efficiency for various Lipid Mixes are also described in the application are shown in Tables 4, 5 and 6. […]

In data set [2] the test system is primary human T cells. The data set is described as follows: EPO mRNA LNP delivery to primary human T cells, Quantikine IVD Human Epo ELISA. It counts as cell-based. Here is the method:
Reagents were acquired from Quantikine, Minneapolis, MN. The assay was performed as directed on the Quantikine® IVD® ELISA Human Erythropoietin Immunoassay protocol in the package insert. Briefly; primary human T cells were isolated from fresh whole blood using a negative selection protocol and activated using a triple activator. Seven days post-activation, T cells were dosed with mRNA LNPs encoding EPO at […] mRNA per 500,000 cells and N/P 10. After 48 h of exposure, the T cells were harvested and lysed for cytosolic EPO and media supernatant was sampled for secreted EPO. Quantikine® Human Serum Controls were used.

[3] abbreviates: 5-moU EPO encoded LNPs, IL:DSPC:cholesterol:DMG-PEG (50:10:38.5:1.5), N/P 6.
Where [4] appears, read: OVA encoded LNPs, payload 5-moU OVA, LM02, N/P 8.
[5] abbreviates: OVA encoded LNPs, payload WT OVA, LM02, N/P 8.
[6] abbreviates: Table 4 LNPs, payload and lipid mix not stated.

Regarding `CCCCC/C=C\C/C=C\CCCCCCCCC(CCCCCCCC/C=C\C/C=C\CCCCC)OC(=O)CCCN(C)C` [MC3, DLin-MC3-DMA, reference compound], the “Diameter (Z. ave, nm)” value worked out at 65.1 nm in data set [1] (setting [3]), 65.8 nm in data set [1] (setting [4]), 67.5 nm in data set [1] (setting [5]) and 77.2 nm in data set [1] (setting [6]). Besides, the “Encapsulation Efficiency (%)” value in data set [1] (setting [3]) is 98.8%; in data set [1] (setting [4]), 95.2%; in data set [1] (setting [5]), 95.4%; in data set [1] (setting [6]), 88.6%. The “Polydispersity Index (PDI)” value in data set [1] (setting [3]) amounted to 0.04; in data set [1] (setting [4]), 0.07; in data set [1] (setting [5]), 0.03; in data set [1] (setting [6]) it was 0.07. The “cytosolic EPO” value in data set [2] (T cell lysate, 48 h exposure, N/P 10, FIG. 5) is “no cytosolic EPO”. The “secreted EPO” value in data set [2] (media supernatant, 48 h exposure, N/P 10, FIG. 5) is “about 545 mlU/mL”. Further, the “Fold increase in EPO concentration relative to MC3” value in data set [2] (primary human T cells, 48 hours) is recorded as 1.0. In addition, the “EPO concentration (mIU/mL), 48 hours” value in data set [2] (primary human T cells, 48 hours, EPO mRNA LNP, N/P 10) is on record as 545.2 mIU/mL.
